Test results reported in patent publication US5952326A, “Tetralin and chroman derivatives useful in the treatment of asthma, arthritis and related diseases” (Pfizer Inc., priority 1997, dated 1999).

System: PAF (platelet activating factor) lethality
Test: PAF lethality assay procedure
Type: in vivo, mice (CD1 males)
Details: Mus musculus, po, positive control, mice treated orally 45 minutes before i.v. PAF injection, approximate
Protocol: To evaluate the compounds of the formula (I) in vivo, they are tested by the so-called PAF lethality assay procedure:
Mice: CD1 males, all approximately the same weight (approximately 26 grams), 12 per group.
Vehicle for oral drug dosing: EES (5% ethanol, 5% emulphor, 90% saline). Stored at room temperature.
Drugs: For routine screening at 50 mg/kg, 20 mg drug is dissolved in 4 ml EES, using sonication in a sonicator bath or grinding in a Ten Broeck grinder to dissolve drug if necessary. If solubility is still a problem, the drug is used as a suspension.
Vehicle for i.v. Injection: Saline with 2.5 mg/ml Bovine Serum Albumin (BSA, Sigma #A4378) and 0.05 mg/ml Propranolol (Sigma #P0884). Prepared fresh daily and kept at room temperature.
Platelet Activating Factor (PAF): A 10 microm stock solution is prepared by dissolving 1 mg PAF (Calbiochem #429460) in 0.18 ml ethanol. This is stored at -20° C. and is diluted in vehicle (see above) the day of use. The concentration of PAF used is calibrated so that when injected at 0.1 ml/10 grams body weight, it will kill approximately 80% of untreated controls. This is usually about […] (a 1 to 2034 dilution from stock). […]
45 minutes before PAF injection, mice are treated orally with drug using 0.1 ml/10 grams body weight. […] Results are expressed as percent mortality as compared to controls. […]

In the case of O=C1CCN(c2ccccc2)N1 [Phenidone], the ED50 is reported as about 25 mg/kg.
